≈ marks a conversion by molar mass, not a printed value. Like-named read-outs stand apart in the source and are kept apart here.
Experiments:
[1] = tested on: African green monkey cells (CV-1)
[2] = tested on: African green monkey cells (CV-1); remark: listed apart in the source
[3] = tested on: San Angelo (SAV); experiment: microbe, parasite or virus in culture; type: cell-based, San Angelo virus
[4] = in vitro; details: African green monkey
[5] = in vitro; details: African green monkey; remark: listed apart in the source
[6] = tested on: San Angelo (SAV); type: cell-based, San Angelo virus
[7] = in vitro; details: African green monkey; remark: listed apart in the source
[8] = in vitro; details: African green monkey; remark: listed apart in the source
[9] = tested on: type 1 herpes (HSV-1), strain McKrae; type: cell-based, Herpes Simplex Type I
[10] = tested on: type 1 herpes (HSV-1), strain McKrae; type: cell-based, Herpes Simplex Type I; remark: listed apart in the source
[11] = tested on: human embryonic lung cell line MRC-5

## Nc1ccn(C[C@@H](CO)OCP(=O)(O)O)c(=O)n1 [HPMPC, cidofovir]
[1]
  CC50: >100 µg/mL
[2]
  CC50: >100 µg/mL

## NC(=O)c1ncn([C@@H]2O[C@H](CO)[C@@H](O)[C@H]2O)n1 [Ribavirin, ribavirin]
[3]
  COMMENT (activity): Very good activity.
[3]; San Angelo virus, Vero
  EC50: 30 µg/mL (≈ 123 µM)
[4]
  CC50: > 100 µg/mL
[5]
  CC50: > 100 µg/mL
[6]
  COMMENT (activity): Very good activity.
[7]
  CC50: > 100 µg/mL
[8]
  CC50: > 100 µg/mL

## Nc1nc2c(ncn2COCCO)c(=O)[nH]1 [Acyclovir, acyclovir]
[9]
  COMMENT (activity): Excellent activity.
[10]
  COMMENT (activity): Excellent activity.
[11]
  CC50: >100 µg/mL

From patent US7476649B2, “Antiproliferative and antiviral proteins and peptides” (priority 1998, dated 2009)
